Bridge positions count the residues as written; N and C are the ends. Square brackets hold non-standard residues; d marks the D form. Ends that are not written are not given here. Met(O) = CS(=O)CC[C@H](N)C(=O)O

Holding throughout (assay type): in vivo, Kunming white mice
In experiment [1] the test system is normal mice. As to the kind of experiment: Hypoglycemic effect on normal mice after administration by gavage, with or without glucose (Example 11). As to conditions: for Blood glucose level prior to administration: baseline.
For experiment [2], the system named is normal mice. The experiment can be described thus: Hypoglycemic effect of polypeptides on normal mice after tail vein injection (Example 4). The note with it: 1 mg/mL at 0.05 ml/10 g, single tail vein injection; for Blood glucose level prior to administration: baseline.
In experiment [3] the test system is normal mice. As to the kind of experiment: Hypoglycemic effect on normal mice after subcutaneous injection (Example 6). The note with it: for Blood glucose level at 15 min after administration / Blood glucose level at 30 min after administration / Blood glucose level prior to administration: 1 mg/mL at 0.05 ml/10 g, single subcutaneous injection on the back; for Blood glucose level prior to administration: baseline.

Experiment [4] concerns normal mice. As to the kind of experiment: Hypoglycemic effect of synthetic polypeptides on normal mice after subcutaneous injection (Example 9). The note with it: 1 mg/mL at 0.05 ml/10 g, single subcutaneous injection on the back.
The test system of experiment [5] is normal mice. As to the kind of experiment: Hypoglycemic effect of the polypeptide on normal mice after tail vein injection (Example 3). As to conditions: for Blood glucose level at 15 min after administration / Blood glucose level at 30 min after administration / Blood glucose level prior to administration: single tail vein injection; for Blood glucose level prior to administration: baseline.

In experiment [6] the test system is normal mice. As to the kind of experiment: Hypoglycemic effect on normal mice after tail vein, subcutaneous and intramuscular injection (Example 8). The note with it: 1 mg/mL at 0.05 ml/10 g once; for Blood glucose level prior to administration: baseline.
For experiment [7], the system named is normal mice. The experiment can be described thus: Natural extract vs solid-phase synthetic polypeptide, normal mice, subcutaneous injection (Example 7). The note with it: 1 mg/mL at 0.05 ml/10 g, single subcutaneous injection on the back; for Blood glucose level prior to administration: baseline.
Experiment [8] concerns normal mice. As to the kind of experiment: Polypeptide vs insulin on normal mice after tail vein injection (Example 10).
[9] abbreviates: Group B, 1 mg/mL polypeptide in saline at 0.10 ml/10 g.
The mark [10] stands for this setting: Group C polypeptide+glucose, 1 mg/mL polypeptide in 10% glucose solution at 0.10 ml/10 g.
The mark [11] stands for this setting: Group A high-dose, 1 mg/mL at 0.10 ml/10 g.
[12] abbreviates: Group B medium-dose, 1 mg/mL at 0.05 ml/10 g.
Where [13] appears, read: Group C low-dose, 1 mg/mL at 0.025 ml/10 g.
Where [14] appears, read: Group B, subcutaneous injection on the back.
The mark [15] stands for this setting: Group C, intramuscular injection in the lateral thigh.
Setting [16] is: single tail vein injection, polypeptide 2 mg/mL at 0.05 ml/10 g (10 mg/kg), insulin 0.5 U/mL (2.5 U/kg).

For the substance “ASCNGVCSPFDIPPCGSPLCRCIPVGLVIGKCRNPYG (disulfide 15-32, 3-20, 7-22; listed as Pisum sativum) [SEQ ID No. 10]”, in experiment [1] (setting [9]), the “Blood glucose level at 15 min after administration” value (“Blood glucose level at 15 min” for short) was determined as 6.9 ± 0.3 mmol/L, the “Blood glucose level at 30 min after administration” value (from here on “Blood glucose level at 30 min”) was found to be 6.4 ± 0.2 mmol/L, the “Blood glucose level at 45 min after administration” value (from here on “Blood glucose level at 45 min”) was 6.1 ± 0.3 mmol/L and the “Blood glucose level at 60 min after administration” value (“Blood glucose level at 60 min” below) is listed as 6.1 ± 0.2 mmol/L. For the same substance, in experiment [1] (setting [9]), the “Blood glucose level prior to administration” value (shortened to “Blood glucose level prior”) turned out to be 6.7 ± 0.6 mmol/L. In addition, in experiment [1] (setting [10]), the “Blood glucose level at 15 min” value came to 7.1 ± 0.3 mmol/L, the “Blood glucose level at 30 min” value turned out to be 6.9 ± 0.2 mmol/L, the “Blood glucose level at 45 min” value turned out to be 6.6 ± 0.3 mmol/L and the “Blood glucose level at 60 min” value was 6.2 ± 0.2 mmol/L. Moreover, the “Blood glucose level prior” value in experiment [1] (setting [10]) is 6.8 ± 0.4 mmol/L.

On to “ASCNGVCSPFEMPPCGSSACRCIPVGLLIGYCRNPSG (disulfide 15-32, 3-20, 7-22; listed as Pisum sativum) [SEQ ID No. 5]”, for which, in experiment [2], the “Blood glucose level at 15 min” value is given as 6.3 ± 0.3 mmol/L, the “Blood glucose level at 30 min” value was 5.3 ± 0.3 mmol/L and the “Blood glucose level prior” value was 7.1 ± 0.5 mmol/L.

As to “ASCNGVCSPFEMPPCGSSACRCIPVGLVVGYCRHPSG (listed as Pisum sativum) [SEQ ID No. 72, extracted polypeptide with H at position 34, outside general formula (I); raised blood glucose]”, in experiment [3], the “Blood glucose level at 15 min” value is on record as 8.91 ± 0.7 mmol/L, the “Blood glucose level at 30 min” value turned out to be 10.4 ± 0.8 mmol/L and the “Blood glucose level prior” value is on record as 7.3 ± 0.6 mmol/L. For the same substance, the “hypoglycemic activity (conclusion)” value in experiment [3] (normal mice, subcutaneous injection) is “no hypoglycemic activity”.

For the substance “ASCNGVCSPFEMPPCGSSACRCIPVGLVVGYCRNPSG (disulfide 15-32, 3-20, 7-22) [SEQ ID No. 26]”, in experiment [3], the “Blood glucose level at 15 min” value is 5.3 ± 0.4 mmol/L, the “Blood glucose level at 30 min” value is recorded as 4.4 ± 0.3 mmol/L and the “Blood glucose level prior” value is 7.1 ± 0.5 mmol/L. In addition, in experiment [4], the “Blood glucose level at 15 min” value is 5.3 ± 0.4 mmol/L, the “Blood glucose level at 30 min” value is given as 4.6 ± 0.3 mmol/L, the “Blood glucose level at 45 min” value was 3.2 ± 0.2 mmol/L and the “Blood glucose level at 60 min” value stood at 2.1 ± 0.2 mmol/L. Further, the “Blood glucose level prior” value in experiment [4] (baseline) was 6.8 ± 0.3 mmol/L.

For the substance “ASCNGVCSPFEMPPCGTSACRCIPVGLFIGYCRNPSG (disulfide 15-32, 3-20, 7-22; listed as Pisum sativum) [SEQ ID No. 7]”, in experiment [5] (setting [11]), the “Blood glucose level at 15 min” value was determined as 3.3 ± 0.3 mmol/L, the “Blood glucose level at 30 min” value is 2.1 ± 0.3 mmol/L and the “Blood glucose level prior” value came out at 7.1 ± 0.5 mmol/L. For the same substance, in experiment [5] (setting [12]), the “Blood glucose level at 15 min” value is listed as 4.3 ± 0.4 mmol/L, the “Blood glucose level at 30 min” value worked out at 3.3 ± 0.3 mmol/L and the “Blood glucose level prior” value was 7.9 ± 0.6 mmol/L. In experiment [5] (setting [13]), the “Blood glucose level at 15 min” value is reported as 5.7 ± 0.3 mmol/L, the “Blood glucose level at 30 min” value is reported as 4.3 ± 0.3 mmol/L and the “Blood glucose level prior” value worked out at 6.9 ± 0.5 mmol/L. Moreover, the “hypoglycemic activity (conclusion)” value in experiment [5] (normal mice, intravenous injection) is reported as “explicit hypoglycemic activity”.

Turning to “ASCNGVCSPFEMPPCGTSACRCIPVGLVIGYCRNPSG (disulfide 15-32, 3-20, 7-22; listed as Pisum sativum) [SEQ ID No. 3]”, in experiment [6] (Group A, tail vein injection), the “Blood glucose level at 15 min” value worked out at 5.6 ± 0.3 mmol/L, the “Blood glucose level at 30 min” value was found to be 4.5 ± 0.2 mmol/L, the “Blood glucose level at 45 min” value is recorded as 3.2 ± 0.1 mmol/L and the “Blood glucose level at 60 min” value is given as 2.4 ± 0.2 mmol/L. Besides, the “Blood glucose level prior” value in experiment [6] (Group A, tail vein injection) amounted to 7.3 ± 0.5 mmol/L. Further, in experiment [6] (setting [14]), the “Blood glucose level at 15 min” value was 5.2 ± 0.2 mmol/L, the “Blood glucose level at 30 min” value is recorded as 3.5 ± 0.3 mmol/L, the “Blood glucose level at 45 min” value was found to be 2.8 ± 0.2 mmol/L and the “Blood glucose level at 60 min” value came out at 2.1 ± 0.1 mmol/L. Moreover, the “Blood glucose level prior” value in experiment [6] (setting [14]) is reported as 6.2 ± 0.3 mmol/L. For the same substance, in experiment [6] (setting [15]), the “Blood glucose level at 15 min” value is given as 6.3 ± 0.5 mmol/L, the “Blood glucose level at 30 min” value amounted to 4.8 ± 0.4 mmol/L, the “Blood glucose level at 45 min” value was found to be 3.5 ± 0.3 mmol/L and the “Blood glucose level at 60 min” value is given as 2.6 ± 0.2 mmol/L. In experiment [6] (setting [15]), the “Blood glucose level prior” value worked out at 8.1 ± 0.7 mmol/L.

Turning to “ASCNGVCSPFEMPPCGTSACRCIPVGLVVGYCRNPSG [Polypeptide A] (disulfide 15-32, 3-20, 7-22; listed as Pisum sativum)”, in experiment [7], the “Blood glucose level at 15 min” value is on record as 5.2 ± 0.4 mmol/L, the “Blood glucose level at 30 min” value is listed as 4.4 ± 0.5 mmol/L, the “Blood glucose level at 45 min” value came out at 3.6 ± 0.3 mmol/L and the “Blood glucose level at 60 min” value worked out at 2.2 ± 0.2 mmol/L. Besides, the “Blood glucose level prior” value in experiment [7] is 6.8 ± 0.5 mmol/L.

“ASCNGVCSPFEMPPCGTSACRCIPVGLVVGYCRNPSG [Polypeptide B] (disulfide 15-32, 3-20, 7-22; listed as Pisum sativum)”: in experiment [7], the “Blood glucose level at 15 min” value was determined as 5.5 ± 0.3 mmol/L, the “Blood glucose level at 30 min” value was determined as 4.6 ± 0.2 mmol/L, the “Blood glucose level at 45 min” value turned out to be 3.3 ± 0.2 mmol/L and the “Blood glucose level at 60 min” value is recorded as 2.4 ± 0.1 mmol/L. Further, the “Blood glucose level prior” value in experiment [7] is reported as 7.2 ± 0.6 mmol/L.

With “ASCNGVCSPFEMoxPPCGSSACRCIPVGLLIGYCRNPSG (ASCNGVCSPFE[Met(O)]PPCGSSACRCIPVGLLIGYCRNPSG; disulfide 15-32, 3-20, 7-22; listed as Pisum sativum) [SEQ ID No. 6]”, in experiment [2], the “Blood glucose level at 15 min” value came to 5.6 ± 0.3 mmol/L, the “Blood glucose level at 30 min” value is 4.2 ± 0.3 mmol/L and the “Blood glucose level prior” value came to 6.6 ± 0.4 mmol/L.

Consider “ASCNGVCSPFEMoxPPCGTSACRCIPVGLVIGYCRNPSG (ASCNGVCSPFE[Met(O)]PPCGTSACRCIPVGLVIGYCRNPSG; disulfide 15-32, 3-20, 7-22; listed as Pisum sativum) [SEQ ID No. 4]”, for which, in experiment [2], the “Blood glucose level at 15 min” value is recorded as 6.9 ± 0.4 mmol/L, the “Blood glucose level at 30 min” value is 4.6 ± 0.3 mmol/L and the “Blood glucose level prior” value came out at 7.5 ± 0.5 mmol/L.

Consider “ASCNGVCSPFEMoxPPCGTSACRCIPVGLVVGYCRNPSG (ASCNGVCSPFE[Met(O)]PPCGTSACRCIPVGLVVGYCRNPSG; disulfide 15-32, 3-20, 7-22; listed as Pisum sativum) [SEQ ID No. 2]”, for which, in experiment [2], the “Blood glucose level at 15 min” value is reported as 6.5 ± 0.2 mmol/L, the “Blood glucose level at 30 min” value was 4.6 ± 0.3 mmol/L and the “Blood glucose level prior” value worked out at 7.2 ± 0.3 mmol/L.

In the case of “ISCNGVCSPFDIPPCGSPLCRCIPAGLVIGNCRNPYG (disulfide 15-32, 3-20, 7-22; listed as Pisum sativum) [SEQ ID No. 11]”, the “hypoglycemic effect compared with insulin” value in experiment [8] (polypeptide 10 mg/kg vs insulin 2.5 U/kg, tail vein injection) is “the same hypoglycemic effect on normal mice as insulin”. For the same substance, in experiment [8] (setting [16]), the “Blood glucose level at 15 min” value was 4.1 ± 0.3 mmol/L, the “Blood glucose level at 30 min” value came out at 2.8 ± 0.2 mmol/L, the “Blood glucose level at 45 min” value is given as 2.2 ± 0.1 mmol/L and the “Blood glucose level at 60 min” value came to 2.0 ± 0.1 mmol/L. The “Blood glucose level prior” value in experiment [8] (single tail vein injection, polypeptide 2 mg/mL at 0.05 ml/10 g (10 mg/kg), insulin 0.5 U/mL (2.5 U/kg), baseline) is given as 8.2 ± 0.5 mmol/L.

The values above are taken from patent US20200038478A1, “POLYPEPTIDE AND COMPOSITION THEREOF FOR TREATING DISEASES OF METABOLIC SYSTEM” (WUHAN GRECTECH CO., LTD., priority 2017, published 2020).
